In brackets after ≈: the same amount, converted by molar mass. Read-outs that look alike come from different tables or passages of the source.
What was measured:
[1] = system: Candida albicans ATCC 24433; experiment: Anticandidal broth microdilution (EUCAST EDef 7.1), MIC90; format: cell-based
From the text: (§1) E. coli (ATCC 35218), E. coli (ATCC 25922), S. aureus (ATCC 6538), methicillin-resistant S. aureus (MRSA) (clinical isolate), S. typhimurium (ATCC 13311), and K. pneumoniae (NCTC 9633) cells for antibacterial effect, and C. albicans (ATCC 24433), C. glabrata (ATCC 90030), C. krusei (ATCC 6258), and C. parapsilosis (ATCC 22019) for the antifungal effect of the final compounds were used to determine the MIC90 values. The broth microdilution procedure specified in the M07-A9 document of the Clinical and Laboratory Standards Institute (CLSI) was used for antibacterial study,[55] and the EDef 7.1 document published by EUCAST was used for the antifungal study.[56] For both activity studies, the detailed procedures were explained in previous studies.[57],[58]

[2] = system: Candida parapsilosis ATCC 22019; experiment: as above; format: cell-based
From the text: as §1

[3] = system: Candida krusei ATCC 6258; experiment: as above; format: cell-based
From the text: as §1

[4] = system: C. glabrata ATCC 90030; experiment: as above; format: cell-based, Candida glabrata; settings: Nakaseomyces glabratus, ATCC90030, C. glabrata ATCC 90030
From the text: as §1

[5] = system: Salmonella typhimurium ATCC 13311; experiment: Antibacterial broth microdilution (CLSI M07-A9), MIC90; format: cell-based; settings: Salmonella enterica; S. typhimurium ATCC 13311
From the text: (§2) The broth microdilution procedure specified in the M07-A9 document of the Clinical and Laboratory Standards Institute (CLSI) was used for antibacterial study,[55] and the EDef 7.1 document published by EUCAST was used for the antifungal study.[56] For both activity studies, the detailed procedures were explained in previous studies.[57],[58]

[6] = system: E. coli ATCC 25922; experiment: as above; format: cell-based; settings: Escherichia coli, ATCC25922
From the text: as §2

[7] = system: Escherichia coli ATCC 35218; experiment: as above; format: cell-based; settings: Escherichia coli, ATCC35218; E. coli ATCC 35218
From the text: as §2

[8] = system: Klebsiella pneumoniae NCTC 9633; experiment: as above; format: cell-based; settings: NCTC9633, K. pneumoniae NCTC 9633
From the text: as §2

[9] = system: Staphylococcus aureus ATCC 6538; experiment: as above; format: cell-based; settings: S. aureus ATCC 6538
From the text: as §2

[10] = system: methicillin-resistant S. aureus (MRSA) (clinical isolate); experiment: as above; format: cell-based; settings: Staphylococcus aureus
From the text: as §2

[11] = system: NIH/3T3 cells; experiment: Cytotoxicity on NIH/3T3 healthy cell line; format: cell-based; settings: Mus musculus, NIH3T3, 24 h incubation
Protocol: NIH/3T3 cells were incubated in Dulbecco’s modified Eagle’s medium (DMEM) (Sigma-Aldrich, St. Louis, MO), added with fetal calf serum, penicillin (100 IU/mL), streptomycin ([…]), and 7.5% NaHCO3 at 37 °C in a humidified atmosphere of 95% air and 5% CO2. NIH/3T3 cells were seeded into the 96-well plates at a density of 1 × 10^4 cells. After 24 h of incubating period, the culture media were removed, and test compounds were added. After 24 h of incubation period, colorimetric measurements were performed by a microplate reader (Biotek) at 540 nm. Inhibition % at all concentrations was determined using the formula below, and the IC50 values were calculated from a dose–response curve obtained by plotting the percentage inhibition versus the log concentration with the use of Microsoft Excel 2013.

[12] = molecular target: T1, Lanosterol 14α-demethylase (LMD, CYP51A1) (Candida glabrata, UniProt P50859); experiment: LDM (CYP51A1) inhibition by LC-MS-MS quantification of ergosterol level; format: cell-based; settings: for inhibition at 0.06 µg/mL / inhibition at 0.24 µg/mL / inhibition at 0.98 µg/mL: read-out: CYP51A1 Inhibition%
T1 construct: tested against Candida strains via the determination of ergosterol production; endogenous in cells; host or cells: C. glabrata (ATCC 90030)
Protocol: (§3) The activity of the target compounds was tested against Candida strains via the determination of ergosterol production.
(§4) Ergosterol level was determined using the extract of total sterols from C. albicans (and its other species) following the method described by Breivik and Owades.[63] Quantification of the ergosterol level in this extract was carried out by the recently described method.[58],[64]−[66] According to these described studies, in the current work, compounds 4b, 4e, 4f, and 4h–m were undertaken to investigate their action mechanism. Thus, the LC-MS-MS-based method that quantifies the ergosterol level was applied. […]. Ergosterol quantity in negative control samples was regarded as 100%. All concentrations were analyzed in quadruplicate, and the results were expressed as mean ± standard deviation (SD).

[13] = system: Lanosterol 14α-demethylase (LMD, CYP51A1); experiment: as above; format: cell-based
Protocol: as §3, §4

[14] = Candida albicans, ATCC24433, C. albicans ATCC 24433, read-out: MIC90
[15] = Lodderomyces parapsilosis, ATCC22019, C. parapsilosis ATCC 22019, read-out: MIC90
[16] = Pichia kudriavzevii, ATCC6258, C. krusei ATCC 6258, read-out: MIC90
[17] = Staphylococcus aureus, ATCC6538, read-out: MIC90

T1 sequence (P50859 whole entry): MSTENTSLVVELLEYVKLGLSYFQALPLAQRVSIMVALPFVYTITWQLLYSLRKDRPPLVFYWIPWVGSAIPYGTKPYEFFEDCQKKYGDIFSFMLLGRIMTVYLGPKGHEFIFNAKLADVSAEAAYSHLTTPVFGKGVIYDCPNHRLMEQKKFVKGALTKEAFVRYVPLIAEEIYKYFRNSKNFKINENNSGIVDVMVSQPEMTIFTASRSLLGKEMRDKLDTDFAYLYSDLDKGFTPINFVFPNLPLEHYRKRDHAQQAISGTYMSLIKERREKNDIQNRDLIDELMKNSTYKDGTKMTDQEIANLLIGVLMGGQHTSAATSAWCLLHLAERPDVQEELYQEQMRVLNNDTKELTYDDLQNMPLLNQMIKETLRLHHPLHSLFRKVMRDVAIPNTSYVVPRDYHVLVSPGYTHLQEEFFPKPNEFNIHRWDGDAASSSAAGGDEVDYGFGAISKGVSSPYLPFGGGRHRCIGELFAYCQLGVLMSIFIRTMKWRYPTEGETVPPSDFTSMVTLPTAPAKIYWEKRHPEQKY

SMILES | MIC90 [1, 14] [µg/mL] | MIC90 [2, 15] [µg/mL] | MIC90 [3, 16] [µg/mL] | MIC90 [4] [µg/mL] | melting point [°C] | MIC90 [5] [µg/mL] | MIC90 [6] [µg/mL] | MIC90 [7] [µg/mL] | MIC90 [8] [µg/mL] | MIC90 [9, 17] [µg/mL] | MIC90 [10] [µg/mL] | IC50 [11] [µM] | CYP51A1 Inhibition% ([13]; C. krusei, 0.06 μg/mL) [%] | CYP51A1 Inhibition% ([13]; C. krusei, 0.24 μg/mL) [%] | CYP51A1 Inhibition% ([13]; C. krusei, 0.98 μg/mL) [%] | further results
COc1ccc2nc(Cl)c(/C=N/Nc3nc(-c4ccc(F)cc4)cs3)cc2c1 [4a] | > 1000 | 15.6 (≈ 37.9 µM) | 31.2 (≈ 75.7 µM) | 1.95 (≈ 4.72 µM) | 193 to 195 | > 1000 | > 1000 | > 1000 | > 1000 | > 1000 | > 1000 | 39.8 ± 1.45 |  |  |  | 
COc1ccc2nc(Cl)c(C=NNc3nc(-c4ccc(Cl)cc4)cs3)cc2c1 [4b] | > 1000 | 31.2 (≈ 72.8 µM) | 31.2 (≈ 72.8 µM) | < 0.06 | 195 to 197 | > 1000 | > 1000 | > 1000 | > 1000 | > 1000 | > 1000 | 14.7 ± 0.34 |  |  |  | effect on ergosterol production / LMD enzyme inhibition (in words) ([12]; C. glabrata): showed their anticandidal activity via LMD enzyme inhibition; inhibition at 0.06 µg/mL ([12]; C. glabrata, 0.06 μg/mL): 36.2 ± 0.965%; inhibition at 0.24 µg/mL ([12]; C. glabrata, 0.24 μg/mL): 51.8 ± 1.61%; inhibition at 0.98 µg/mL ([12]; C. glabrata, 0.98 μg/mL): 60.2 ± 2.1%
COc1ccc2nc(Cl)c(/C=N/Nc3nc(-c4ccc([N+](=O)[O-])cc4)cs3)cc2c1 [4c] | > 1000 | 31.2 (≈ 71 µM) | 31.2 (≈ 71 µM) | 62.5 (≈ 142 µM) | 245 to 253 | > 1000 | > 1000 | > 1000 | > 1000 | > 1000 | > 1000 | 31.6 ± 0.87 |  |  |  | 
COc1ccc2nc(Cl)c(/C=N/Nc3nc(-c4ccccc4)cs3)cc2c1 [4d] | 1.95 (≈ 4.94 µM) | 15.6 (≈ 39.6 µM) | 1.95 (≈ 4.94 µM) | 1.95 (≈ 4.94 µM) | 220 to 222 | > 1000 | > 1000 | > 1000 | > 1000 | > 1000 | > 1000 | 1.26 ± 0.033 |  |  |  | 
COc1ccc2nc(Cl)c(C=NNc3nc(-c4cccc(Cl)c4)cs3)cc2c1 [4h] | > 1000 | 125 (≈ 291 µM) | ≤ 0.06 | 31.2 (≈ 72.8 µM) | 200 to 202 | > 1000 | > 1000 | > 1000 | > 1000 | > 1000 | > 1000 | 14.5 ± 0.57 | 45.530 ± 0.961 | 60.184 ± 1.985 | 67.651 ± 1.736 | effect on ergosterol production / LMD enzyme inhibition (in words) ([13]; C. krusei): showed their anticandidal activity via LMD enzyme inhibition
COc1ccc2nc(Cl)c(/C=N/Nc3nc(-c4ccc5ccccc5c4)cs3)cc2c1 [4n] | 3.91 (≈ 8.79 µM) | 1.95 (≈ 4.38 µM) | 1.95 (≈ 4.38 µM) | 1.95 (≈ 4.38 µM) | 199 to 202 | > 1000 | > 1000 | > 1000 | > 1000 | 62.5 (≈ 140 µM) | > 1000 | > 1000 |  |  |  | 
O=C(N[C@H](CO)[C@H](O)c1ccc([N+](=O)[O-])cc1)C(Cl)Cl [chloramphenicol, reference compound] |  |  |  |  |  | 31.2 (≈ 96.7 µM) | 15.6 (≈ 48.4 µM) | 31.2 (≈ 96.7 µM) | 31.2 (≈ 96.7 µM) | ≤ 1.95 | 31.2 (≈ 96.7 µM) |  |  |  |  | MIC90 ([9]; listed as RF-1): ≤1.95 µg/mL
OC(Cn1cncn1)(Cn1cncn1)c1ccc(F)cc1F [fluconazole, reference compound] |  |  |  |  |  |  |  |  |  |  |  |  | 43.378 ± 0.937 | 60.132 ± 2.042 | 72.523 ± 1.961 | inhibition at 0.06 µg/mL [12]: 46.3 ± 0.936%; inhibition at 0.24 µg/mL [12]: 63.7 ± 2.19%; inhibition at 0.98 µg/mL [12]: 70.1 ± 2.05%; CYP51A1 Inhibition% ([13]; C. parapsilosis, 0.06 μg/mL): 49.579 ± 1.733%; CYP51A1 Inhibition% ([13]; C. parapsilosis, 0.24 μg/mL): 61.533 ± 1.282%; CYP51A1 Inhibition% ([13]; C. parapsilosis, 0.98 μg/mL): 73.204 ± 2.031%
CC(=O)N1CCN(c2ccc(OCC3COC(Cn4ccnc4)(c4ccc(Cl)cc4Cl)O3)cc2)CC1 (stereo not shown) [ketoconazole, reference compound] | < 0.06 | < 0.06 | < 0.06 | 0.24 (≈ 0.452 µM) |  |  |  |  |  |  |  |  | 52.865 ± 1.662 | 60.630 ± 2.875 | 75.647 ± 2.749 | MIC90 ([1]; C. albicans ATCC 24433, listed as Rf): ≤0.06 µg/mL; MIC90 ([2]; C. parapsilosis ATCC 22019, listed as Rf): ≤0.06 µg/mL; MIC90 ([3]; C. krusei ATCC 6258, listed as Rf): ≤0.06 µg/mL; inhibition at 0.06 µg/mL ([12]; C. glabrata, 0.06 μg/mL): 50.4 ± 1.16%; inhibition at 0.24 µg/mL ([12]; C. glabrata, 0.24 μg/mL): 61.9 ± 1.83%; inhibition at 0.98 µg/mL ([12]; C. glabrata, 0.98 μg/mL): 72.8 ± 2.87%; CYP51A1 Inhibition% ([13]; C. parapsilosis, 0.06 μg/mL): 55.348 ± 1.091%; CYP51A1 Inhibition% ([13]; C. parapsilosis, 0.24 μg/mL): 63.419 ± 2.074%; CYP51A1 Inhibition% ([13]; C. parapsilosis, 0.98 μg/mL): 71.864 ± 2.229%

Source: article PMC9835529, “Investigation of Novel Quinoline–Thiazole Derivatives as Antimicrobial Agents: In Vitro and In Silico Approaches” (ACS Omega, 2022)
